Assay results from patent publication US20240294570A1, “ENZYMATICALLY FORMING INTRANUCLEAR PEPTIDE ASSEMBLIES FOR SELECTIVELY KILLING INDUCED PLURIPOTENT STEM CELLS” (BRANDEIS UNIVERSITY, priority 2021, published 2024).
Non-standard residues stand in square brackets, D forms with d. Residues, ends and D or L forms follow the SMILES beside them. *: point of attachment. pY = N[C@@H](Cc1ccc(OP(=O)(O)O)cc1)C(=O)O; NBD = O=[N+]([O-])c1ccc(*)c2nonc12; βAla = NCCC(=O)O

What was measured:
[1] = Critical micelle concentration (CMC) measurement with pyrene probe; assay type: physicochemical
Procedure: Critical Micelle Concentration ((MC) Measurement: The CMCs were determined using pyrene as the fluorescent probe. Different concentrations of compounds were prepared in pyrene-saturate solutions. The fluorescence spectra of pyrene solutions with different concentration compounds were obtained. The intensity ratio of 378 nm/393 nm (I378/I393) was determined by a Synergy H1 hybrid multi-mode microplate reader. Plot I378/I393 against the concentrations of compounds. The concentration at the turning point is the CMC.

iPSCs = assay: CLSM imaging of peptide assemblies in iPSCs; assay type: cell-based, human
Procedure: Confocal Laser Scanning Microscopy (CLSM) Imaging: For live cell imaging, cells in exponential growth phase were seeded in a confocal dish (3.5 cm) at 1.0×10^5 cells per dish and then incubated in incubator for 24 h. We removed culture medium, and added fresh medium containing precursors for different time points. After removing the medium and washing the cells with live cell imaging solution (2 mL×2), the cells were used for CLSM imaging. For time-dependent live cell imaging, cells in exponential growth phase were seeded in a confocal dish (3.5 cm) at 1.0×10^5 cells per dish and then incubated in incubator for 24 h. After removing culture medium, we treated the cells with 1 mL of Hoechst 33342 (1 μg mL^−1) for 10 minutes. After being washed with culture medium (2 mL×2), the cells were incubated with fresh medium containing precursor 5 in a Tokai Hit stage top incubator (STXF-WSKMX-SET) to be used for CLSM imaging. All the CLSM images were obtained using Zeiss LSM 880 confocal microscopy at the lens of 63× with oil. The lasers used are 405 nm and 488 nm.
Because the fluorescence of NBD increases drastically from unassembled to assembled state, confocal laser scanning microscopy (CLSM) was suitable to reveal the cellular location of the peptide assemblies formed after dephosphorylation catalyzed by ALP. […] The blackness in nuclei overlaps well with the strong fluorescence. […] The results confirms that the nucleus-targeting mainly originates from the ALP catalyzed dephosphorylation.
To trace the dynamics of the formation and distribution of 5 inside iPSC cells, time-lapse CLSM was also used to image the changes of the fluorescence in the iPSCs incubated by 5 (400 μM). Using one cell as a representative case, after 6 minutes incubation fluorescent puncta appear on the membrane, likely originating from the aggregates of assemblies of 5 and those of 6 generated by the dephosphorylation catalyzed by ALP. […] After 24 minutes incubation, fluorescence starts to grow in the cytoplasm. Considering the LLLLY motif in SEQ ID NO: 2 constitutes the transmembrane domains of 18 human membrane proteins, it is possible that the affinity of 5 or 6 to membrane allows the assemblies of the mixture of 5 and 6 to interact with cellular membranes, which then facilitates nuclear localization. At about 28 minutes of incubation, fluorescence appears in the nucleus. Moreover, the nuclei shrink after the assemblies emerge in the nuclei. In addition, the nuclei also show nuclear blebbing (Stephens et al., “Chromatin Histone Modifications and Rigidity Affect Nuclear Morphology Independent of Lamins,” Mol. Biol. Cell 29(2):220-233 (2018), which is hereby incorporated by reference in its entirety). The shrinkage of nuclei and nuclear blebbing likely associate with iPSC death. To further examine the dynamics of EISA-formed peptide assemblies in iPSCs over different time, the increase of fluorescence in two cells over 2 hours was monitored; their nuclei, A and B, are shown in FIG. 10A. […] The mean fluorescent intensity in Nucleus A starts to increase at 28 minutes and levels off after 110 minutes. For Nucleus B, the mean fluorescent intensity keeps increasing from 38 minutes. The increases of the fluorescence in the nuclei and nucleoli are synchronous. […] The assemblies inside the nuclei or near nuclear membrane induce nuclear blebbing and shrinkage of nuclei, which likely contributes to the cell death.

[2] = 400 μM, time-lapse CLSM, one representative cell

In the case of `CC(C)C[C@H](NC(=O)CCNc1ccc([N+](=O)[O-])c2nonc12)C(=O)N[C@@H](CC(C)C)C(=O)N[C@@H](CC(C)C)C(=O)N[C@@H](CC(C)C)C(=O)N[C@@H](Cc1ccc(OP(=O)(O)O)cc1)C(=O)O` [compound 5, NBD-βA-LLLLpY] ({NBD-βAla}-LLLL[pY]-OH), the “critical micelle concentration (CMC)” value [1] is reported as 86.1 µM, the “NBD fluorescence in iPSCs” value (iPSCs; 200 μM) is reported as “hardly any fluorescence in the cells” and the “NBD fluorescence in iPSCs with ALP inhibitor” value (iPSCs; 400 μM plus DQB 5 μM, 2 hours) is reported as “little fluorescence in cells”. For the same molecule, the “NBD fluorescence in iPSCs (location of peptide assemblies)” value (iPSCs; 400 μM, 2 hours) was “strong NBD fluorescence in nuclei”, the “incubation time at which fluorescence appears in the nucleus” value (iPSCs; [2]) was “about 28 minutes” and the “incubation time at which fluorescence starts to grow in the cytoplasm” value (iPSCs; [2]) was 24 min. For the same molecule, the “incubation time at which fluorescent puncta appear on the membrane” value (iPSCs; [2]) was 6 min and the “NBD fluorescence in iPSC nuclei” value (iPSCs; 400 μM, treatment time 1 hour) was “weaker fluorescence”.
